Laboratory results as given in article PMC9154192 (PLoS Biology, 2022).
≈ marks a conversion by molar mass, not a printed value. Where “and” joins values, the source holds several entries; their conditions need not be identical. Equal entries are not always repeated. Where two headings read alike, the source gives them in different places.

What was measured:
M. kansasii = assay: microbe, parasite or virus in culture; assay type: cell-based; conditions: Mycobacterium kansasii
M. avium = assay: microbe, parasite or virus in culture; assay type: cell-based; conditions: Mycobacterium avium
M. conceptionense = assay: microbe, parasite or virus in culture; assay type: cell-based, Mycobacterium conceptionense; conditions: Mycolicibacterium senegalense
M. bovis = assay: microbe, parasite or virus in culture; assay type: cell-based; conditions: Mycobacterium tuberculosis variant bovis
M. colombiense = assay: microbe, parasite or virus in culture; assay type: cell-based; conditions: Mycobacterium colombiense
M. heraklionease = assay: microbe, parasite or virus in culture; assay type: cell-based; conditions: Mycobacterium
intestinal microbiome = assay: Gut microbiome, 16s rRNA gene-based metagenomics analysis of feces; assay type: in vivo, BALB/c mice; conditions: mouse, in vivo
Protocol: Six-week-old BALB/c female mice were used for this study (6 mice for each group). Each drug was administered orally at 30 mg/kg once daily for 7 days. Stool was collected, and 16 rRNA gene-based metagenomics analysis was performed. Corn oil was used as the vehicle. The drug-free group received corn oil only. This animal experiment was conducted with the approval of the IACUC of the Soonchunhyang University (approval number: SCH21-0011). Microbiome analysis of collected feces was carried out as previously described with some modifications. Total DNA was extracted from the stool using the QIAamp DNA stool mini kit (Qiagen, Germany) after mechanical disruption using lysing matrix B tubes (MP Biomedicals, USA). V4 region of 16S RNA gene was amplified from extracted DNA with the following primers: forward primer ([…]) and reverse primer ([…]). PCR was performed using the Kappa HiFi hot start kit (KAPA Biosystems, USA) for 16s gene amplification and library preparation. A dsDNA HS assay kit and Qubit 4 fluorimeter (Invitrogen, USA) were used for DNA quantification. After each step, quality was checked using Agilent High Sensitivity DNA Kit and Agilent Bioanalyzer 2100 (Agilent Technologies, USA). Clean-up was performed using AMPure XP beads (Beckman Coulter, UK). The metagenomic library was prepared using a Nextera XT DNA Library Prep Kit (Illumina, USA) and loaded into an iSeq-100 reagent cartridge (Illumina, USA) together with a PhiX Control library (Illumina, USA). A 300-bp paired-end sequencing was performed on an iSeq-100 platform (Illumina, USA). Sequencing data were analyzed using the EzBioCloud server (Chunlab, Korea).

M. gordonae = assay: microbe, parasite or virus in culture; assay type: cell-based; conditions: Mycobacterium gordonae
M. neoaurum = assay: microbe, parasite or virus in culture; assay type: cell-based, Mycobacterium neoaurum; conditions: Mycolicibacterium neoaurum
[1] = test system: Staphylococcus epidermidis; assay: Broth dilution MIC (CLSI); assay type: cell-based
From the text: (§1) Bacteria (Acinetobacter baumannii NCCP 14782, Citrobacter freundii NCCP 14766, Enterobacter aerogenes NCCP 14761, Escherichia coli NCCP 14762, Escherichia coli O157 NCCP 14541, Klebsiella pneumoniae NCCP 14764, Proteus mirabilis NCCP 14763, Proteus vulgaris NCCP 14765, Pseudomonas aeruginosa NCCP 14781, Salmonella Enteritidis NCCP 14771, Salmonella Paratyphi A NCCP 14759, Salmonella Typhimurium NCCP 16207, Serratia marcescens NCCP 14770, Shigella boydii NCCP 14745, Shigella dysenteriae NCCP 14746, Shigella flexneri NCCP 14744, Shigella sonnei NCCP 14773, Bacillus subtilis NCCP 11101, Corynebacterium diphtheriae NCCP 10353, Staphylococcus aureus MSSA NCCP 14780, Staphylococcus aureus MRSA NCCP 14769, Staphylococcus epidermidis NCCP 14768, Streptococcus pneumoniae NCCP 14774) and fungi (Aspergillus fumigatus NCCP 22454, Candida albicans NCCP 32557, Cryptococcus neoformans NCCP 32559, Microsporum canis NCCP 22454, Rhizopus oryzae NCCP 22458, Saccharomyces cerevisiae NCCP 32558, Trichophyton rubrum NCCP 22456) strains were obtained from the National Culture Collection for Pathogens (NCCP) (Chungbuk, Korea). The MIC of each agent was determined following the Clinical and Laboratory Standards Institute (CLSI).[40]

Serratia marcescens = assay: Broth dilution MIC (CLSI); assay type: cell-based
From the text: as §1

[2] = test system: Staphylococcus aureus, MSSA; assay: Broth dilution MIC (CLSI); assay type: cell-based
From the text: as §1

Acinetobacter baumannii = assay: Broth dilution MIC (CLSI); assay type: cell-based
From the text: as §1

Shigella boydii = assay: Broth dilution MIC (CLSI); assay type: cell-based
From the text: as §1

Shigella flexneri = assay: Broth dilution MIC (CLSI); assay type: cell-based
From the text: as §1

Shigella sonnei = assay: Broth dilution MIC (CLSI); assay type: cell-based
From the text: as §1

[3] = test system: XDR M. tuberculosis (KMRC 00203–00197); assay type: cell-based, Mycobacterium tuberculosis
in vitro = assay type: cell-based; conditions: human
Protocol: A549 human pulmonary epithelial cells (KCLB 10185), human embryonic kidney (HEK) 293 cells (KCLB 21573), human THP-1 leukemia cells (KCLB 40202), human neuroblastoma SH-SY5Y cells (KCLB 22266), Murine Raw 264.7 macrophages (KCLB 40071), and L929 murine fibroblasts (KCLB 10001) were purchased from the KCLB (Seoul, Korea). Cytotoxicity testing was performed using the MTT assay and the WST-1 cell viability assay as previously described.

M. phocaicum = assay: microbe, parasite or virus in culture; assay type: cell-based, Mycobacterium phocaicum; conditions: Mycolicibacterium phocaicum
M. aubagnense = assay: microbe, parasite or virus in culture; assay type: cell-based, Mycobacterium aubagnense; conditions: Mycolicibacterium aubagnense

CO[C@H]1/C=C/O[C@@]2(C)Oc3c(C)c(O)c4c(O)c(c(/C=N/N5CCN(C)CC5)c(O)c4c3C2=O)NC(=O)/C(C)=C\C=C\[C@H](C)[C@H](O)[C@@H](C)[C@@H](O)[C@@H](C)[C@H](OC(C)=O)[C@@H]1C [RIF, rifampicin, reference compound]
MIC (M. kansasii): < 0.1 µg/mL
MIC (M. avium): 1.6 µg/mL (≈ 1.94 µM)
MIC (M. conceptionense): 25 µg/mL (≈ 30.4 µM)
MIC (M. bovis): 0.1 µg/mL (≈ 0.122 µM)
MIC (M. colombiense): 0.2 µg/mL (≈ 0.243 µM)
MIC (M. heraklionease): 0.2 µg/mL (≈ 0.243 µM)
beta set-significance analysis, pair-wise comparison of gut microbiome (intestinal microbiome): significant
difference in phylum or class level taxa compared to drug-free group (intestinal microbiome): significant differences
phylogenetic diversity compared to drug-free control group (intestinal microbiome): significantly decreased
MIC (M. gordonae): 3.1 µg/mL (≈ 3.77 µM)
MIC (M. neoaurum): 0.2 µg/mL (≈ 0.243 µM)
MIC [1]: 0.05 µg/mL (≈ 0.0608 µM)
MIC (Serratia marcescens): 12.5 µg/mL (≈ 15.2 µM)
MIC [2]: 0.05 µg/mL (≈ 0.0608 µM)
MIC (Acinetobacter baumannii): 3.1 µg/mL (≈ 3.77 µM)
MIC (Shigella boydii): 0.4 µg/mL (≈ 0.486 µM)
MIC (Shigella flexneri): 1.5 µg/mL (≈ 1.82 µM)
MIC (Shigella sonnei): 3.1 µg/mL (≈ 3.77 µM)
CFU (log) [3]: 4.63 and 4.77
CFU (replicates1-3), single values [3]: 56400 CFU and 14000 CFU and 26700 CFU and 25200 CFU and 51000 CFU and 59000 CFU and 55000 CFU and 48000 CFU and 53000 CFU and 44900 CFU and 67000 CFU (2×) and 75100 CFU and 66500 CFU and 63000 CFU and 65000 CFU and 35000 CFU and 41000 CFU
log reduction (CFU) ([3]; at 12.5 μg/ml, 7 days): 0.6
CC50 (in vitro; A549): > 500 µg/mL
CC50 (in vitro; HEK-293): > 500 µg/mL
CC50 (in vitro; SH-SY5Y): > 500 µg/mL
CC50 (in vitro; THP-1): > 500 µg/mL
MIC (M. phocaicum): 25 µg/mL (≈ 30.4 µM)
MIC (M. aubagnense): 1.6 µg/mL (≈ 1.94 µM)

[H]/N=C(/N)N[C@H]1[C@H](O)[C@@H](O)[C@H](O[C@@H]2O[C@@H](C)[C@](O)(C=O)[C@H]2O[C@@H]2O[C@@H](CO)[C@H](O)[C@@H](O)[C@@H]2NC)[C@@H](N/C(N)=N\[H])[C@@H]1O [STR, streptomycin]
MIC (M. kansasii): 0.2 µg/mL (≈ 0.344 µM)
MIC (M. avium): 3.1 µg/mL (≈ 5.33 µM)
MIC (M. conceptionense): 3.1 µg/mL (≈ 5.33 µM)
MIC (M. bovis): 0.4 µg/mL (≈ 0.688 µM)
MIC (M. colombiense): 0.8 µg/mL (≈ 1.38 µM)
MIC (M. heraklionease): 50 µg/mL (≈ 86 µM)
MIC (M. gordonae): 100 µg/mL (≈ 172 µM)
MIC (M. neoaurum): 0.8 µg/mL (≈ 1.38 µM)
MIC ([1]; read-out: MIC): 1.6 µg/mL (≈ 2.75 µM)
MIC (Serratia marcescens; read-out: MIC): 50 µg/mL (≈ 86 µM)
MIC ([2]; read-out: MIC): 6.3 µg/mL (≈ 10.8 µM)
MIC (Acinetobacter baumannii; read-out: MIC): 6.3 µg/mL (≈ 10.8 µM)
MIC (Shigella boydii; read-out: MIC): 25 µg/mL (≈ 43 µM)
MIC (Shigella flexneri; read-out: MIC): 25 µg/mL (≈ 43 µM)
MIC (Shigella sonnei; read-out: MIC): 3.1 µg/mL (≈ 5.33 µM)
MIC (M. phocaicum): 6.3 µg/mL (≈ 10.8 µM)
MIC (M. aubagnense): > 100 µg/mL
